Assay results from publication PMC7721796, “Molecular basis of regio- and stereo-specificity in biosynthesis of bacterial heterodimeric diketopiperazines” (Nature Communications, 2020).
Where a chain is given by its changes, count along the chain named.

Experiments:
[1] = target: T1, NasS1868 (Streptomyces sp. NRRL S-1868, UniProt A0ACD6BAV5); test: product formation by UHPLC-MS; assay type: biochemical; conditions: 1 mM substrate, 0.1 µM P450, spinach Fd/FdR, NADPH recycling, pH 7.5, 4 °C, 24 h; product aspergilazine A
T1 construct: codon-optimised gene in pMS1, Mycobacterium smegmatis mc2 155
T1 sequence (A0ACD6BAV5 1-401): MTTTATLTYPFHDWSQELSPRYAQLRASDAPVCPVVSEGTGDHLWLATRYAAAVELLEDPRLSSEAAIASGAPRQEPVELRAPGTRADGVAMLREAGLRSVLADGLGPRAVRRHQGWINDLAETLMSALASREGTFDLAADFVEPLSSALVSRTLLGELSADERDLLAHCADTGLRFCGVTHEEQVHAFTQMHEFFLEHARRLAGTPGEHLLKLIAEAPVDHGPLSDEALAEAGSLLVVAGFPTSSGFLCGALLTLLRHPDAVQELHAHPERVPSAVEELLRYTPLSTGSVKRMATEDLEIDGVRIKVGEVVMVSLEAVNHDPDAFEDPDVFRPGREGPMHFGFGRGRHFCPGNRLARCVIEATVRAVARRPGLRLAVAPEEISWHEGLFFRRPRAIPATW

[2] = target: T2, NasF5053 (NascF5053) (Streptomyces sp. NRRL F-5053, UniProt A0A8I3B027, A86G/Q65I); test: UV-Vis difference spectra, Soret shift, hyperbolic fit; conditions: read-out: binding constant
T2 construct: codon-optimised gene in pET28a, E. coli BL21(DE3); heme protein
T2 sequence (A0A8I3B027 1-398 Q65I/A86G): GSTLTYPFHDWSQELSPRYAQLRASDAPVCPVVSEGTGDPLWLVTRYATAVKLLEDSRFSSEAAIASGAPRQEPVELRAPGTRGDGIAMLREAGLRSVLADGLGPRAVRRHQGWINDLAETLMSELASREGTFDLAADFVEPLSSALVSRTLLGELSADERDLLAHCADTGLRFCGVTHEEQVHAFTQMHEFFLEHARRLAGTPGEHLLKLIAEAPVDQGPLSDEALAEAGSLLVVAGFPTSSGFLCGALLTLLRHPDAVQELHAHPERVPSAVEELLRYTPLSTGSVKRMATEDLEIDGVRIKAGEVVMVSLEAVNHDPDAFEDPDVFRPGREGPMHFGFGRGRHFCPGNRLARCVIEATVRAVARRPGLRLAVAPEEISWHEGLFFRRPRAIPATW

[3] = target: T3, NasF5053 (NascF5053) (Streptomyces sp. NRRL F-5053, UniProt A0A8I3B027, S284A/V288A); test: as above; conditions: read-out: binding constant
T3 construct: codon-optimised gene in pET28a, E. coli BL21(DE3); heme protein
T3 sequence (A0A8I3B027 1-398 S284A/V288A): T2 sequence (A0A8I3B027 1-398 Q65I/A86G) with I65Q, G86A, S284A, V288A

[4] = target: T4, NasF5053 (NascF5053) (Streptomyces sp. NRRL F-5053, UniProt A0A8I3B027); test: as above; conditions: read-out: binding constant
T4 construct: codon-optimised gene in pET28a, E. coli BL21(DE3); heme protein
T4 sequence (A0A8I3B027 entry or part of it): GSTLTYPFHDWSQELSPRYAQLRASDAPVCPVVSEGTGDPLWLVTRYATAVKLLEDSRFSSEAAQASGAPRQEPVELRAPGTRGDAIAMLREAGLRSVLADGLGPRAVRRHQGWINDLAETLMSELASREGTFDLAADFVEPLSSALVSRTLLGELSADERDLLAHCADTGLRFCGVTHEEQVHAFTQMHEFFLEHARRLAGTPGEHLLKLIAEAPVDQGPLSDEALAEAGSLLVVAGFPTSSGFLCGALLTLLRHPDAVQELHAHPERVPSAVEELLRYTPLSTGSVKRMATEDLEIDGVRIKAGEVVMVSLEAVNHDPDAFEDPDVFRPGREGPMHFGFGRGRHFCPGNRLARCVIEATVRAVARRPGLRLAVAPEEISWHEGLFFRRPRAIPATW

[5] = target: T5, NasbB (Streptomyces sp., UniProt A0A7T3QX21); assay type: biochemical; conditions: […] substrate, […] P450, spinach Fd/FdR, NADPH recycling, pH […] °C, […] h; product NAS-B
T5 construct: codon-optimised gene in pMS1, Mycobacterium smegmatis mc2 155
T5 sequence (A0A7T3QX21 1-422): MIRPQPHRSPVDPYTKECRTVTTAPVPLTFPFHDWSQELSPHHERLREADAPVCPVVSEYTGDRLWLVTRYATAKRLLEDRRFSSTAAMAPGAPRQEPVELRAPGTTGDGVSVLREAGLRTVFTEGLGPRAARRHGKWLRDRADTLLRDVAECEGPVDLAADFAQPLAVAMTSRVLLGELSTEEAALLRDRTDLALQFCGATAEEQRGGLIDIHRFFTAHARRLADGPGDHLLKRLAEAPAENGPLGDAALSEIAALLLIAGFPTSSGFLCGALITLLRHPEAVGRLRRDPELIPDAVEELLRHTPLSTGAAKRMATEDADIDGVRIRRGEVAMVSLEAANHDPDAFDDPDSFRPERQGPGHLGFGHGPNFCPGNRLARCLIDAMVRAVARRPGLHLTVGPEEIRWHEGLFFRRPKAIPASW

How did the “product formation by UHPLC-MS” value [1] turn out when `O=C1N[C@@H](Cc2c[nH]c3ccccc23)C(=O)N2CCC[C@@H]12` [cWL-PL] was run?
Its value is “NasS1868 can convert cWL-PL into Asp-A”.

And the Kd [2]?
The Kd was 25.6 ± 1 µM.

And the Kd [3]?
Its Kd is 4.81 ± 0.26 µM.

What about the Kd [4] of the same molecule?
Its Kd is 11.6 ± 2.1 µM.

What about the “product formation by UHPLC-MS” value [5] of the same molecule?
Its value is “NasbB was confirmed to efficiently dimerize the cWL-PL into NAS-B”.
